Data: patent US20120014880A1, “METHOD FOR THE PREVENTION AND TREATMENT OF ESSENTIAL TREMOR BY REGULATING alpha1G T-TYPE CALCIUM CHANNEL OR BY T-TYPE CALCIUM CHANNEL BLOCKERS” (Korea Advanced Institute of Science and Technology, priority 2007, published 2012)

Tested on: harmaline induced tremor
Test: Inhibition of harmaline induced tremor by T-type channel blockers, measured with tremor quantification apparatus
Assay type: in vivo, mouse
Source text: In the screening method of the present invention, symptoms of essential tremor of step 3) are involuntary, regular movements of hands, arms, head, face, vocal band, trunk or legs. The symptoms can be checked by movement artifact of electroenphalograph (EEG) or tremor quantification apparatus, but not always limited thereto. The tremor quantification apparatus herein is to detect tremor of the mouse, in which stainless test cage is hung on the support and the bottom of the cage is attached with accelerometer connected with electric wire to analog-digital converter so that the generated analog signals can be converted into digital signals recognizable by computer. Thereby, tremor of the mouse can be measured by analyzing the digital signals recognized by computer. […] When the strength of oscillation for 5 seconds under the frequency of 10-18 Hz, that is the characteristic frequency of harmaline induced tremor, was at least 65 dB, it was diagnosed as tremor and the time point of break (onset), duration, strength, and the maximum frequency were all measured and compared between the wild type mice and the transgenic mice. The method for measuring tremor is developed on the basis of described method in the following references (Long M A. et al., J. Neurosci. 2002 Dec. 15, 22(24):10898-905; Milner, T E. et al., J. Neurophysiol. 1995 June, 73(6):2568-77).
The α1G−/−transgenic mice generated in Example 1 and the wild-type mice were administered with the tremor inducing agents, oxotremorine (0.3 mg/kg), penitrem A (1.0 mg/kg) and harmaline (9 mg/kg) respectively by intraperitoneal injection to induce tremor. Tremor was investigated by using movement artifact of electroenphalograph (EEG) and tremor quantification apparatus designed by the present inventors. […] The accelerometer was connected to analog-digital converter (Digidata1320, Axon instrument Inc) by electric wire so that the generated analog signals could be converted into digital signals recognizable by computer. Thereby, tremor of the mouse was measured by analyzing the digital signals recognized by computer. The accelerometer was quipped to the test cage where the animals were located, and the test cage was hung in the air. The level of tremor of the animal was quantified by measuring the oscillation of the test cage. […] When the strength of oscillation for 5 seconds under the frequency of 10-18 Hz, that is the characteristic frequency of harmaline induced tremor, was at least 65 dB, it was diagnosed as tremor and the time point of development of tremor (onset), duration, strength, and the maximum frequency were all measured and compared between the wild type mice and the knockout mice.
The wild-type mouse (α1G+/+) was administered with 10 mg/kg of mibefradil by intraperitoneal injection 30 minutes before harmaline injection to investigate the therapeutic effect of mibefradil on harmaline induced tremor. In the meantime, osmotic pump (Model 1002, 0.25 ul/hour, Alzet) containing 20 mM of mibefradil was inserted into the brain of the wild-type mouse (α1G+/+). Two days later, the therapeutic effect on harmaline induced tremor was investigated by using the tremor quantification apparatus of Example 2.
The wild-type mice (α1G+/+) were administered with 150 mg/kg and 300 mg/kg of ethosuximide by intraperitoneal injection 30 minutes before harmaline injection to investigate the therapeutic effect of ethosuximide on harmaline induced tremor. For the investigation, the tremor quantification apparatus of Example 2 was used.

[1] = wild-type mice (α1G+/+), 300 mg/kg intraperitoneal injection 30 minutes before harmaline injection

Row | Compound | tremor inhibiting effect on harmaline induced tremor (wild-type mice (α1G+/+), 150 mg/kg intraperitoneal injection 30 minutes before harmaline injection) | mice that did not exhibit oscillation, symptom of tremor [1] [%] | mice that showed tremor [1] [%] | tremor inhibiting effect on harmaline induced tremor [1] | tremor inhibiting effect on harmaline induced tremor (wild-type mouse (α1G+/+), 10 mg/kg intraperitoneal injection 30 minutes before harmaline injection) | tremor inhibiting effect on harmaline induced tremor (wild-type mouse (α1G+/+), osmotic pump containing 20 mM, 0.25 ul/hour, directly into inferior olive (IO) of the brain, two days later)
1 | CCC1(C)CC(=O)NC1=O (stereo not drawn) [ethosuximide] | tremor inhibiting effect was observed | 60 | 40 | tremor inhibiting effect was observed | – | –
2 | COCC(=O)O[C@]1(CCN(C)CCCc2nc3ccccc3[nH]2)CCc2cc(F)ccc2[C@@H]1C(C)C [mibefradil] | – | – | – | – | tremor inhibiting effect was not detected | tremor inhibiting effect was observed
